Results published in PubChem BioAssay AID330 (DTP/NCI, 2004).
Several values for one entry are separate records, joined by “and”; a condition that tells them apart may be missing. Identical values can stand only once. Inconclusive results and toxic doses are left out. Peptide text beside a SMILES is read from it.

Tested on: P388 leukemia ip, CD2F1 mice, survival T/C
Experiment: NCI In Vivo Anticancer Drug Screen. Data for tumor model P388 Leukemia (intraperitoneal) in CD2F1 (CDF1) mice
Settings: endpoint: median survival time, higher = longer survival
Method in brief: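 Mice carrying the transplanted tumor received test compound or vehicle. Survival was recorded in each group, and the value is the treated-group measurement divided by that of the vehicle-treated control group.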

[1] = dose: 50.0 mg/kg/injection, schedule: Q01DX005 (ip), vehicle: Klucel (hydroxypropylcellulose) (HPC)
[2] = dose: 100.0 mg/kg/injection, schedule: Q01DX005 (ip), vehicle: Klucel (hydroxypropylcellulose) (HPC)
[3] = dose: 200.0 mg/kg/injection, schedule: Q01DX005 (ip), vehicle: Klucel (hydroxypropylcellulose) (HPC)
[4] = dose: 50.0 mg/kg/injection, schedule: Q01DX009 (ip), vehicle: saline with Tween-80
[5] = dose: 100.0 mg/kg/injection, schedule: Q01DX009 (ip), vehicle: saline with Tween-80
[6] = dose: 200.0 mg/kg/injection, schedule: Q01DX009 (ip), vehicle: saline with Tween-80
[7] = dose: 100.0 mg/kg/injection, schedule: Q04DX003 (ip), vehicle: saline
[8] = dose: 200.0 mg/kg/injection, schedule: Q04DX003 (ip), vehicle: saline
[9] = dose: 25.0 mg/kg/injection, schedule: Q01DX009 (ip), vehicle: Klucel (hydroxypropylcellulose) (HPC)
[10] = dose: 50.0 mg/kg/injection, schedule: Q01DX009 (ip), vehicle: Klucel (hydroxypropylcellulose) (HPC)
[11] = dose: 100.0 mg/kg/injection, schedule: Q01DX009 (ip), vehicle: Klucel (hydroxypropylcellulose) (HPC)
[12] = dose: 200.0 mg/kg/injection, schedule: Q01DX009 (ip), vehicle: Klucel (hydroxypropylcellulose) (HPC)
[13] = dose: 50.0 mg/kg/injection, schedule: Q01DX005 (ip), vehicle: saline with Tween-80
[14] = dose: 100.0 mg/kg/injection, schedule: Q01DX005 (ip), vehicle: saline with Tween-80
[15] = dose: 200.0 mg/kg/injection, schedule: Q01DX005 (ip), vehicle: saline with Tween-80

COC(=O)CC1(C(=O)OC)C2=C(C(C(=O)C(F)F)CC2)N2CCCC21 (centres undefined)
T/C (dose: 12.5 mg/kg/injection, schedule: Q01DX001 (ip), vehicle: Klucel (hydroxypropylcellulose) (HPC)): 94 % of control | T/C (dose: 25.0 mg/kg/injection, schedule: Q01DX001 (ip), vehicle: Klucel (hydroxypropylcellulose) (HPC)): 97 % of control | T/C (dose: 50.0 mg/kg/injection, schedule: Q01DX001 (ip), vehicle: Klucel (hydroxypropylcellulose) (HPC)): 100 % of control

Cc1ccsc1C(=O)c1ccccc1[N+](=O)[O-]
T/C [1]: 94 % of control | T/C [2]: 94 % of control | T/C [3]: 100 % of control

CCn1c2ccccc2c2cc(N=Nc3ccc4c(c3)c3ccccc3n4CC)ccc21
T/C [4]: 105 % of control | T/C [5]: 113 % of control

COCCNCCN1CCN(CCCN2c3ccccc3Sc3ccc(C(F)(F)F)cc32)CC1
T/C (dose: 1.56 mg/kg/injection, schedule: Q01DX009 (ip), vehicle: saline): 104 % of control | T/C (dose: 3.12 mg/kg/injection, schedule: Q01DX009 (ip), vehicle: saline): 100 % of control | T/C (dose: 6.25 mg/kg/injection, schedule: Q01DX009 (ip), vehicle: saline): 107 % of control

c1ccc(N=C(Nc2ccccc2)C(=Nc2ccccc2)Nc2ccccc2)cc1
T/C [1]: 100 % of control | T/C [2]: 96 % of control | T/C [3]: 98 % of control

COC(=O)C1(C(=O)OC)C2C=CCC21 (centres undefined)
T/C [4]: 96 % of control | T/C [5]: 102 % of control | T/C [6]: 104 % of control

CCOCCC(=O)NCC(=O)NC1C(C)OC(Nc2ncnc3nc[nH]c23)C(O)C1O (centres undefined)
T/C (dose: 3.12 mg/kg/injection, schedule: Q01DX009 (ip), vehicle: water): 94 % of control | T/C (dose: 6.25 mg/kg/injection, schedule: Q01DX009 (ip), vehicle: water): 100 % of control | T/C (dose: 12.5 mg/kg/injection, schedule: Q01DX009 (ip), vehicle: water): 96 % of control | T/C (dose: 25.0 mg/kg/injection, schedule: Q01DX009 (ip), vehicle: water): 116 % of control | T/C (dose: 50.0 mg/kg/injection, schedule: Q01DX009 (ip), vehicle: water): 100 % of control

O=c1c(Br)cc(CN2CCOCC2)cc(CN2CCOCC2)c1O
T/C [4]: 112 % of control | T/C [5]: 116 % of control

CC(=O)OC(C)C(C)N(C)C (centres undefined)
T/C [7]: 94 % of control | T/C [8]: 101 % of control

CC(CNC(Cc1ccccc1)c1ccccc1)NC(Cc1ccccc1)c1ccccc1 (centres undefined)
T/C (dose: 12.5 mg/kg/injection, schedule: Q01DX005 (ip), vehicle: Klucel (hydroxypropylcellulose) (HPC)): 110 % of control | T/C (dose: 25.0 mg/kg/injection, schedule: Q01DX005 (ip), vehicle: Klucel (hydroxypropylcellulose) (HPC)): 102 % of control | T/C [1]: 105 % of control and 110 % of control

O=S(=O)(O)CNc1cccc(Cl)c1
T/C [4]: 106 % of control | T/C [5]: 95 % of control | T/C [6]: 98 % of control

CC1=NC2=NC(CCCC(=O)OCc3ccc(Cl)c(Cl)c3)=NC3=CC=CC(=N1)N32
T/C (dose: 25.0 mg/kg/injection, schedule: Q01DX009 (ip), vehicle: saline with Tween-80): 101 % of control | T/C [4]: 111 % of control | T/C [5]: 95 % of control

CCOC(=O)NC(NC(=O)OCC)c1cccc(F)c1
T/C [7]: 99 % of control | T/C [8]: 99 % of control | T/C (dose: 400.0 mg/kg/injection, schedule: Q04DX003 (ip), vehicle: saline): 93 % of control

Cc1cc(C)cc(N(C2=NCCS2)C2=NCCS2)c1
T/C [9]: 106 % of control | T/C [10]: 101 % of control | T/C [11]: 99 % of control | T/C [12]: 104 % of control

S=C1OCCO1
T/C [10]: 106 % of control | T/C [11]: 102 % of control | T/C [12]: 100 % of control | T/C (dose: 400.0 mg/kg/injection, schedule: Q01DX009 (ip), vehicle: Klucel (hydroxypropylcellulose) (HPC)): 105 % of control

COC(=O)Nc1cn2cc(C(=O)c3cccs3)ccc2n1
T/C [10]: 113 % of control | T/C [12]: 151 % of control

O=C1C=CC(=NBr)C=C1
T/C (dose: 60.0 mg/kg/injection, schedule: Q01DX005 (ip), vehicle: saline with Tween-80): 108 % of control | T/C (dose: 120.0 mg/kg/injection, schedule: Q01DX005 (ip), vehicle: saline with Tween-80): 110 % of control | T/C (dose: 240.0 mg/kg/injection, schedule: Q01DX005 (ip), vehicle: saline with Tween-80): 108 % of control

O=c1[nH]c(=O)n(C2OC(CO)C(O)C2O)c(NNc2ccccc2)c1NNc1ccccc1 (centres undefined)
T/C [13]: 97 % of control | T/C [14]: 111 % of control | T/C [15]: 117 % of control

O=C1OC2=C(CCCC2)C(N2CCCCC2)C12SCCCS2 (centres undefined)
T/C (dose: 100.0 mg/kg/injection, schedule: Q04DX003 (ip), vehicle: saline with Tween-80): 109 % of control | T/C (dose: 200.0 mg/kg/injection, schedule: Q04DX003 (ip), vehicle: saline with Tween-80): 103 % of control | T/C (dose: 400.0 mg/kg/injection, schedule: Q04DX003 (ip), vehicle: saline with Tween-80): 101 % of control

Cc1nn(-c2ccccc2)c2c1C(c1ccccc1)C(C#N)=C(N)O2 (centres undefined)
T/C [10]: 100 % of control | T/C [11]: 100 % of control | T/C [12]: 100 % of control

Cn1cnc2c(NCCO)ncnc21
T/C [13]: 118 % of control | T/C [14]: 100 % of control | T/C [15]: 103 % of control

CCOC(=O)Nc1nc2c(SC#N)cc(C)cc2s1
T/C (dose: 12.5 mg/kg/injection, schedule: Q01DX009 (ip), vehicle: Klucel (hydroxypropylcellulose) (HPC)): 103 % of control | T/C [9]: 96 % of control | T/C [10]: 88 % of control and 96 % of control

O=c1c(Cl)c(Cl)cnn1-c1ccccc1
T/C (dose: 25.0 mg/kg/injection, schedule: Q01DX001 (ip), vehicle: saline with Tween-80): 100 % of control | T/C (dose: 50.0 mg/kg/injection, schedule: Q01DX001 (ip), vehicle: saline with Tween-80): 118 % of control | T/C (dose: 100.0 mg/kg/injection, schedule: Q01DX001 (ip), vehicle: saline with Tween-80): 111 % of control | T/C (dose: 200.0 mg/kg/injection, schedule: Q01DX001 (ip), vehicle: saline with Tween-80): 111 % of control

COc1cc2c(cc1OC)-c1nc(Nc3ccccc3)sc1CC2
T/C [4]: 106 % of control | T/C [5]: 106 % of control | T/C [6]: 89 % of control

NC(Cc1cnc[nH]1)C(=O)NC(Cc1ccc(O)cc1)C(=O)O (stereo not drawn) (H-His-Tyr-OH; configuration not given here)
T/C (dose: 60.0 mg/kg/injection, schedule: Q01DX005 (ip), vehicle: saline): 100 % of control | T/C (dose: 120.0 mg/kg/injection, schedule: Q01DX005 (ip), vehicle: saline): 101 % of control | T/C (dose: 240.0 mg/kg/injection, schedule: Q01DX005 (ip), vehicle: saline): 100 % of control

CN(C)c1ccc(/C=N/N=C2\C(=O)Nc3c(Cl)cc(Cl)cc32)cc1
T/C [4]: 95 % of control | T/C [5]: 97 % of control | T/C [6]: 95 % of control

Cc1c(C)c2c(c(C)c1OP(=O)(N1CC1)N1CC1)CCC(C)(CCCC(C)CCCC(C)CCCC(C)C)O2 (centres undefined)
T/C [4]: 105 % of control | T/C [5]: 105 % of control | T/C [6]: 102 % of control

N=C(N)c1ccc2oc(/C=C/c3cc4ccc(C(=N)N)cc4o3)cc2c1
T/C (dose: 400.0 mg/kg/injection, schedule: Q04DX003 (ip), vehicle: suspension in saline): 150 % of control

CSC(C(=O)O)c1cc(-c2c(Cl)cccc2Cl)no1 (centres undefined)
T/C [13]: 104 % of control | T/C [14]: 105 % of control | T/C [15]: 107 % of control

COC1(OC)C(=S)N(C2CCCCC2)C(=S)N1C1CCCCC1
T/C [1]: 95 % of control | T/C [2]: 95 % of control | T/C [3]: 96 % of control
